Measured values: patent publication US20110190365A1, “Insecticidal 4-phenyl-1H-pyrazoles” (Bayer Crop Science AG, priority 2008, published 2011)

assay: log P by HPLC on a reversed-phase column (C18), EEC Directive 79/831 Annex V.A8; format: physicochemical; conditions: HCOOH
Experimental: The stated log P values were determined in accordance with EEC Directive 79/831 Annex V.A8 by HPLC (High Performance Liquid Chromatography) using a reversed-phase column (C18).

Row | SMILES | log P (HCOOH)
1 | Cc1cc(-n2nc(C(F)(F)F)c(-c3cc(Cl)cc(Cl)c3)c2N)ccc1C(=O)NC(C)c1ccc(Cl)nc1 (stereo not drawn) [I-A-Q2-248] | I-A-Q2-248: log P (HCOOH): 4.34
2 | Cc1cc(-n2nc(C(F)(F)F)c(-c3cc(Cl)cc(Cl)c3)c2N)ccc1C(=O)NCc1ccc([N+](=O)[O-])cc1 [I-A-Q2-249] | I-A-Q2-249: log P (HCOOH): 4.28
3 | Cc1cc(-n2nc(C(F)(F)F)c(-c3cc(Cl)cc(Cl)c3)c2N)ccc1C(=O)NC1CCOCC1 [I-A-Q2-250] | I-A-Q2-250: log P (HCOOH): 3.68
4 | Cc1nc(CNC(=O)c2ccc(-n3nc(C(F)(F)F)c(-c4cc(Cl)cc(Cl)c4)c3N)cc2C)c(C)o1 [I-A-Q2-251] | I-A-Q2-251: log P (HCOOH): 3.84
5 | Cc1cc(-n2nc(C(F)(F)F)c(-c3cc(Cl)cc(Cl)c3)c2N)ccc1C(=O)NCc1cccc(Br)n1 [I-A-Q2-253] | I-A-Q2-253: log P (HCOOH): 4.40
6 | Cc1cc(CNC(=O)c2ccc(-n3nc(C(F)(F)F)c(-c4cc(Cl)cc(Cl)c4)c3N)cc2C)n(C)n1 [I-A-Q2-254] | I-A-Q2-254: log P (HCOOH): 3.58
7 | COc1cc(OC)nc(CNC(=O)c2ccc(-n3nc(C(F)(F)F)c(-c4cc(Cl)cc(Cl)c4)c3N)cc2C)n1 [I-A-Q2-255] | I-A-Q2-255: log P (HCOOH): 4.40
8 | Cc1cc(-n2nc(C(F)(F)F)c(-c3cc(Cl)cc(Cl)c3)c2N)ccc1C(=O)NC(C)c1nccc2ccccc12 (stereo not drawn) [I-A-Q2-256] | I-A-Q2-256: log P (HCOOH): 4.64
9 | Cc1cc(-n2nc(C(F)(F)F)c(-c3cc(Cl)cc(Cl)c3)c2N)ccc1C(=O)NC(c1cccc(C(F)(F)F)c1)C(F)(F)F (stereo not drawn) [I-A-Q2-257] | I-A-Q2-257: log P (HCOOH): 5.22
10 | Cc1nccc(CNC(=O)c2ccc(-n3nc(C(F)(F)F)c(-c4cc(Cl)cc(Cl)c4)c3N)cc2C)n1 [I-A-Q2-258] | I-A-Q2-258: log P (HCOOH): 3.47
11 | Cc1cc(CNC(=O)c2ccc(-n3nc(C(F)(F)F)c(-c4cc(Cl)cc(Cl)c4)c3N)cc2C)[nH]n1 [I-A-Q2-259] | I-A-Q2-259: log P (HCOOH): 3.33
12 | Cc1cc(-n2nc(C(F)(F)F)c(-c3cc(Cl)cc(Cl)c3)c2N)ccc1C(=O)NCc1ccncn1 [I-A-Q2-260] | I-A-Q2-260: log P (HCOOH): 3.33
13 | Cc1cc(-n2nc(C(F)(F)F)c(-c3cc(Cl)cc(Cl)c3)c2N)ccc1C(=O)NC(C)C1(Cl)CC1 (stereo not drawn) [I-A-Q2-261] | I-A-Q2-261: log P (HCOOH): 4.76
14 | Cc1cc(-n2nc(C(F)(F)F)c(-c3cc(Cl)cc(Cl)c3)c2N)ccc1C(=O)NCC(C)O (stereo not drawn) [I-A-Q2-262] | I-A-Q2-262: log P (HCOOH): 3.28
15 | Cc1cc(-n2nc(C(F)(F)F)c(-c3cc(Cl)cc(Cl)c3)c2N)ccc1C(=O)NCC1CCCCC1 [I-A-Q2-263] | I-A-Q2-263: log P (HCOOH): 5.08
16 | Cc1cc(-n2nc(C(F)(F)F)c(-c3cc(Cl)cc(Cl)c3)c2N)ccc1C(=O)NCCN1CCOCC1 [I-A-Q2-264] | I-A-Q2-264: log P (HCOOH): 1.99
17 | Cc1cnc(CNC(=O)c2ccc(-n3nc(C(F)(F)F)c(-c4cc(Cl)cc(Cl)c4)c3N)cc2C)cn1 [I-A-Q2-265] | I-A-Q2-265: log P (HCOOH): 3.63
18 | Cc1cc(-n2nc(C(F)(F)F)c(-c3cc(Cl)cc(Cl)c3)c2N)ccc1C(=O)NCC(F)(F)C(F)(F)C(F)(F)F [I-A-Q2-266] | I-A-Q2-266: log P (HCOOH): 4.89
19 | Cc1cc(-n2nc(C(F)(F)F)c(-c3cc(Cl)cc(Cl)c3)c2N)ccc1C(=O)NCC(F)(F)C(F)(F)C(F)(F)C(F)(F)C(F)(F)C(F)(F)C(F)(F)F [I-A-Q2-267] | I-A-Q2-267: log P (HCOOH): 6.14
20 | Cc1cc(-n2nc(C(F)(F)F)c(-c3cc(Cl)cc(Cl)c3)c2N)ccc1C(=O)NCC(F)(F)Br [I-A-Q2-268] | I-A-Q2-268: log P (HCOOH): 4.45
21 | Cc1cc(-n2nc(C(F)(F)F)c(-c3cc(Cl)cc(Cl)c3)c2N)ccc1C(=O)NCC(F)(F)C(F)(F)F [I-A-Q2-269] | I-A-Q2-269: log P (HCOOH): 4.57
22 | CCNC(=O)c1ccc(-n2nc(C(F)(F)F)c(-c3cc(Cl)cc(Cl)c3)c2N)cc1C [I-A-Q2-270] | I-A-Q2-270: log P (HCOOH): 3.84
23 | Cc1cc(-n2nc(C(F)(F)F)c(-c3cc(Cl)cc(Cl)c3)c2N)ccc1C(=O)NCc1ccccc1 [I-A-Q2-271] | I-A-Q2-271: log P (HCOOH): 4.45
24 | Cc1cc(-n2nc(C(F)(F)F)c(-c3cc(Cl)cc(Cl)c3)c2N)ccc1C(=O)NCCO [I-A-Q2-272] | I-A-Q2-272: log P (HCOOH): 3.24
25 | Cc1cc(-n2nc(C(F)(F)F)c(-c3cc(Cl)cc(Cl)c3)c2N)ccc1C(=O)NCC[S+](C)[O-] (stereo not drawn) [I-A-Q2-273] | I-A-Q2-273: log P (HCOOH): 2.98
26 | Cc1cc(-n2nc(C(F)(F)F)c(-c3cc(Cl)cc(Cl)c3)c2N)ccc1C(=O)NC1CCCCC1C(F)(F)F (stereo not drawn) [I-A-Q2-274] | I-A-Q2-274: log P (HCOOH): 4.95

Row | SMILES | log P (HCOOH)
27 | Cc1cc(-n2nc(C(F)(F)F)c(-c3cc(Cl)cc(Cl)c3)c2I)ccc1C(=O)NCc1ncccn1 [I-A-Q2-275] | I-A-Q2-275: log P (HCOOH): 4.47
28 | CSc1c(-c2cc(Cl)cc(Cl)c2)c(C(F)(F)F)nn1-c1ccc(C(=O)NCc2ncccn2)c(C)c1 [I-A-Q2-276] | I-A-Q2-276: log P (HCOOH): 4.50
29 | Cc1cc(-n2nc(C(F)(F)F)c(-c3cc(Cl)cc(Cl)c3)c2Cl)ccc1C(=O)NCc1ncccn1 [I-A-Q2-277] | I-A-Q2-277: log P (HCOOH): 4.56
30 | Cc1cc(-n2nc(C(F)(F)F)c(-c3cc(Cl)cc(Cl)c3)c2N)ccc1C(=O)NCc1ncc(F)cc1F [I-A-Q2-278] | I-A-Q2-278: log P (HCOOH): 4.30
31 | CSCC(C)NC(=O)c1ccc(-n2nc(C(F)(F)F)c(-c3cc(Cl)cc(Cl)c3)c2N)cc1C (stereo not drawn) [I-A-Q2-279] | I-A-Q2-279: log P (HCOOH): 4.43
32 | Cc1cc(-n2nc(C(F)(F)F)c(-c3cc(Cl)cc(Cl)c3)c2N)ccc1C(=O)NCc1cccc(N2CCOCC2)n1 [I-A-Q2-280] | I-A-Q2-280: log P (HCOOH): 3.96
33 | Cc1cc(-n2nc(C(F)(F)F)c(-c3cc(Cl)cc(Cl)c3)c2N)ccc1C(=O)NC1CC1F (stereo not drawn) [I-A-Q2-281] | I-A-Q2-281: log P (HCOOH): 3.97
34 | CSc1c(-c2cc(Cl)cc(Cl)c2)c(C(F)(F)F)nn1-c1ccc(C(=O)NCC(F)(F)C(F)F)c(C)c1 [I-A-Q2-282] | I-A-Q2-282: log P (HCOOH): 5.25
35 | Cc1cc(-n2nc(C(F)(F)c3cccc(Br)c3)c(-c3cc(Cl)cc(C(F)(F)F)c3)c2N)ccc1C(=O)NCC(F)(F)C(F)F [I-A-Q2-285] | I-A-Q2-285: log P (HCOOH): 4.95
36 | Cc1cc(-n2nc(C(F)(F)c3cccc(C(F)(F)F)c3)c(-c3cc(Cl)cc(C(F)(F)F)c3)c2N)ccc1C(=O)NCC(F)(F)C(F)F [I-A-Q2-286] | I-A-Q2-286: log P (HCOOH): 4.89
37 | Cc1cc(-n2nc(C(F)(F)OC(F)(F)C(F)(F)OC(F)(F)F)c(-c3cc(Cl)cc(C(F)(F)F)c3)c2N)ccc1C(=O)NCC(F)(F)C(F)F [I-A-Q2-287] | I-A-Q2-287: log P (HCOOH): 5.33
38 | COc1cccc(C(F)(F)c2nn(-c3ccc(C(=O)NCC(F)(F)C(F)F)c(C)c3)c(N)c2-c2cc(Cl)cc(C(F)(F)F)c2)c1 [I-A-Q2-288] | I-A-Q2-288: log P (HCOOH): 4.40
39 | Cc1cc(-n2nc(C(F)(F)c3ccc(C(F)(F)F)cc3)c(-c3cc(Cl)cc(C(F)(F)F)c3)c2N)ccc1C(=O)NCC(F)(F)C(F)F [I-A-Q2-289] | I-A-Q2-289: log P (HCOOH): 4.95
40 | Cc1cc(-n2nc(C3CCCO3)c(-c3cc(Cl)cc(C(F)(F)F)c3)c2N)ccc1C(=O)NCC(F)(F)C(F)F (stereo not drawn) [I-A-Q2-290] | I-A-Q2-290: log P (HCOOH): 4.00
41 | COC(C)c1nn(-c2ccc(C(=O)NCC(F)(F)C(F)F)c(C)c2)c(N)c1-c1cc(Cl)cc(C(F)(F)F)c1 (stereo not drawn) [I-A-Q2-291] | I-A-Q2-291: log P (HCOOH): 3.84
42 | COc1cc(-c2c(C(F)(F)F)nn(-c3ccc(C(=O)NCC(F)(F)C(F)F)c(C)c3)c2N)cc(Cl)c1OC [I-A-Q2-292] | I-A-Q2-292: log P (HCOOH): 3.53
43 | Cc1cc(-n2nc(C(F)(F)F)c(-c3cc(Cl)c4c(c3)OCO4)c2N)ccc1C(=O)NCC(F)(F)C(F)F [I-A-Q2-293] | I-A-Q2-293: log P (HCOOH): 3.11
44 | Cc1cc(-n2nc(C(F)(F)Oc3ccc(Cl)cc3)c(-c3cc(Cl)cc(C(F)(F)F)c3)c2N)ccc1C(=O)NCC(F)(F)C(F)F [I-A-Q2-294] | I-A-Q2-294: log P (HCOOH): 4.95
45 | Cc1cc(-n2nc(C(F)(F)Oc3ccc(Cl)cc3Cl)c(-c3cc(Cl)cc(C(F)(F)F)c3)c2N)ccc1C(=O)NCC(F)(F)C(F)F [I-A-Q2-295] | I-A-Q2-295: log P (HCOOH): 5.27
46 | Cc1cc(-n2nc(C(F)(F)Oc3cc(Cl)ccc3Cl)c(-c3cc(Cl)cc(C(F)(F)F)c3)c2N)ccc1C(=O)NCC(F)(F)C(F)F [I-A-Q2-296] | I-A-Q2-296: log P (HCOOH): 5.14
47 | Cc1cc(-n2nc(C(F)(F)Oc3cccc(Cl)c3)c(-c3cc(Cl)cc(C(F)(F)F)c3)c2N)ccc1C(=O)NCC(F)(F)C(F)F [I-A-Q2-297] | I-A-Q2-297: log P (HCOOH): 4.95
48 | Cc1cc(-n2nc(C(F)(F)Oc3ccccc3Cl)c(-c3cc(Cl)cc(C(F)(F)F)c3)c2N)ccc1C(=O)NCC(F)(F)C(F)F [I-A-Q2-298] | I-A-Q2-298: log P (HCOOH): 4.64
49 | Cc1cc(-n2nc(C(F)(F)Oc3ccccc3)c(-c3cc(Cl)cc(C(F)(F)F)c3)c2N)ccc1C(=O)NCC(F)(F)C(F)F [I-A-Q2-299] | I-A-Q2-299: log P (HCOOH): 4.51
50 | Cc1cc(-n2nc(C(F)(F)Oc3ccc(Cl)c(Cl)c3)c(-c3cc(Cl)cc(C(F)(F)F)c3)c2N)ccc1C(=O)NCC(F)(F)C(F)F [I-A-Q2-300] | I-A-Q2-300: log P (HCOOH): 5.40
51 | Cc1cc(-n2nc(C(F)(F)F)c(-c3cc(F)cc(Cl)c3)c2N)ccc1C(=O)NCC(F)(F)C(F)F [I-A-Q2-301] | I-A-Q2-301: log P (HCOOH): 3.75
